From ChEMBL document CHEMBL5380859, “Bioactivity-Driven Synthesis of the Marine Natural Product Naamidine J and Its Derivatives as Potential Tumor Immunological Agents by Inhibiting Programmed Death-Ligand 1” (J Med Chem, 2023)
pIC50: −log10 of the molar value. Active and inactive are the calls of the source. The rule behind the calls is not given here.

Key:
RKO [1] = assay: Downregulation of PD-L1 expression level in human RKO cells at 10 uM incubated for 24 hrs by Western blot analysis; type: functional, cell-based
RKO [2] = assay: Cytotoxicity against human RKO cells assessed as reduction in cell viability after 24 hrs by CCK8 assay; type: functional, cell-based
MC-38 [3] = assay: Antitumor activity against mouse MC38 cells implanted in C57BL/6 mouse assessed as downregulation of PD-L1 expression at 50 mg/kg, ip administered once daily and measured after 16 days by immunohistochemistry analysis; type: functional, organism-based; settings: time 16.0 day
RKO [4] = assay: Downregulation of PD-L1 expression level in human RKO cells at 1 to 10 uM by Western blot analysis; type: functional, cell-based; settings: dose 1-10 µM, time 3-24 hrs, TDE = time-dependent effect
MC-38 [5] = assay: Antitumor activity against mouse MC38 cells implanted in C57BL/6 mouse assessed as reduction in tumor growth at 50 mg/kg, ip administered once daily for 16 days; type: functional, organism-based; settings: time 16.0 day
MC-38 [6] = assay: Antitumor activity against mouse MC38 cells implanted in C57BL/6J mouse assessed as increase in number of CD8 positive T cells at 50 mg/kg, ip administered once daily for 16 days by flow cytometry analysis; type: functional, organism-based; settings: time 16.0 day
[7] = molecular target: Programmed cell death 1 ligand 1 (Homo sapiens) (UniProt Q9NZQ7); assay: Induction of PD-L1 degradation in human RKO cells at 5 uM in presence of CQ incubated for 24 hrs by Western blot analysis; type: cell-based
MC-38 [8] = assay: Antitumor activity against mouse MC38 cells implanted in C57BL/6J mouse assessed as as increase in ratio of CD8 positive T cells to CD4 positive T cells at 50 mg/kg, ip administered once daily for 16 days by flow cytometry analysis; type: functional, organism-based; settings: time 16.0 day
RKO [9] = assay: Downregulation of PD-L1 expression level in human RKO cells incubated for 24 hrs by Western blot analysis; type: functional, cell-based; settings: dose 1-10 µM
[10] = molecular target: Programmed cell death 1 ligand 1 (Homo sapiens) (UniProt Q9NZQ7); assay: Induction of PD-L1 degradation in human RKO cells at 5 uM in presence of MG132 incubated for 24 hrs by Western blot analysis; type: cell-based
MC-38 [11] = assay: Antitumor activity against mouse MC38 cells implanted in C57BL/6 mouse assessed as inhibition of tumor size at 50 mg/kg, ip administered once daily for 16 days; type: functional; settings: MC-38, 384 h, time 16 day
[12] = Toxicity in C57BL/6 mouse implanted with mouse MC38 cells assessed as change in body weight at 50 mg/kg, ip administered once daily for 16 days and measured every 2 days; type: organism-based, MC-38; settings: in vivo, 384 h, time 16 day
MC-38 [13] = assay: Antitumor activity against mouse MC38 cells implanted in C57BL/6 mouse assessed as upregulation of cleaved caspase 3 at 50 mg/kg, ip administered once daily and measured after 16 days by immunohistochemistry analysis; type: functional, organism-based; settings: time 16.0 day
[14] = molecular target: Programmed cell death 1 ligand 1 (Homo sapiens) (UniProt Q9NZQ7); assay: Induction of PD-L1 degradation in human RKO cells at 5 uM in presence of 3-MA incubated for 24 hrs by Western blot analysis; type: cell-based
RKO [15] = assay: Downregulation of PD-L1 expression level in human RKO cells assessed as turnover rate at 5 uM incubated for 12 hrs in presence of CHX by immunoblotting analysis; type: functional, cell-based
MC-38 [16] = assay: Antitumor activity against mouse MC38 cells implanted in C57BL/6 mouse assessed as reduction in tumor growth at 25 mg/kg, ip administered once daily for 16 days; type: functional, organism-based; settings: time 16.0 day
RKO [17] = assay: Effect on PD-L1 mRNA level in human RKO cells at 1 to 10 uM by qRT-PCR analysis; type: functional, cell-based; settings: dose 1-10 µM
MC-38 [18] = assay: Antitumor activity against mouse MC38 cells implanted in C57BL/6 mouse assessed as upregulation of CD3 expression at 50 mg/kg, ip administered once daily and measured after 16 days by immunohistochemistry analysis; type: functional, organism-based; settings: time 16.0 day
MC-38 [19] = assay: Antitumor activity against mouse MC38 cells implanted in C57BL/6 mouse assessed as downregulation of FOXP3 expression at 50 mg/kg, ip administered once daily and measured after 16 days by immunohistochemistry analysis; type: functional, organism-based; settings: time 16.0 day
RKO [20] = assay: Antitumor activity in human RKO cells cocultured with […] assessed as induction of T-cell mediated cell killing at 10 uM incubated for 24 hrs by crystal violet staining method; type: functional, cell-based
MC-38 [21] = assay: Antitumor activity against mouse MC38 cells implanted in C57BL/6 mouse assessed as reduction in tumor weight at 50 mg/kg, ip administered once daily for 16 days and measured for every 2 days; type: functional, organism-based; settings: time 16.0 day

Sequence of Programmed cell death 1 ligand 1 (Homo sapiens) (Q9NZQ7 whole entry): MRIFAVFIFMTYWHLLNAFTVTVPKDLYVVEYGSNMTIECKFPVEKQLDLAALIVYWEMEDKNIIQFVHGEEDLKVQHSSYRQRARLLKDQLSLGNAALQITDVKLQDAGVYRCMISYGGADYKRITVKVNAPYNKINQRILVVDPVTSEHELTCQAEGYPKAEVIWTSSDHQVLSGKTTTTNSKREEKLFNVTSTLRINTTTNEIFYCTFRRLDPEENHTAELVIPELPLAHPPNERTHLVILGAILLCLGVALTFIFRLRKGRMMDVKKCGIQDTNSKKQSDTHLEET

| SMILES | Activity (RKO [1]) | pIC50 (RKO [2]) | also measured |
| --- | --- | --- | --- |
| COc1ccc(Cc2nc(NC(=O)c3ccc(OC(F)(F)F)cc3)n(C)c2Cc2ccc(OC)c(OC)c2)cc1 | Active | 4.62 | – |
| COc1ccc(Cc2nc(NC(=O)c3ccco3)n(C)c2Cc2ccc(OC)c(OC)c2)cc1 | Active | 4.53 | – |
| COc1ccc(Cc2nc(NC(=O)C3CCOCC3)n(C)c2Cc2ccc(OC)c(OC)c2)cc1 | Active | 4.48 | – |
| COc1ccc(Cc2nc(NC(=O)c3cccc(N)c3)n(C)c2Cc2ccc(OC)c(OC)c2)cc1 | – | 4.70 | – |
| COc1ccc(Cc2nc(NC(=O)c3cccc(NC(=O)OC(C)(C)C)c3)n(C)c2Cc2ccc(OC)c(OC)c2)cc1 | Active | 4.50 | Activity (MC-38 [3]): Active; Activity (RKO [4]): Tde; Activity (MC-38 [5]): Active; Activity (MC-38 [6]): Active; Activity [7]: Active; Activity (MC-38 [8]): Active; Activity (RKO [9]): Dose-Dependent Effect; Activity [10]: Active; inhibition in vivo at 50 mg/kg (MC-38 [11]): 45%; Activity [12]: Non-Toxic; Activity (MC-38 [13]): Active; Activity [14]: inactive; Activity (RKO [15]): inactive; Activity (MC-38 [16]): inactive; Activity (RKO [17]): inactive; Activity (MC-38 [18]): Active; Activity (MC-38 [19]): Active; Activity (RKO [20]): Active; Activity (MC-38 [21]): Active |
| COc1ccc(Cc2nc(NC(=O)C3CCCCC3)n(C)c2Cc2ccc(OC)c(OC)c2)cc1 | – | < 4.40 | – |
| COc1ccc(Cc2nc(NC(=O)C3CC4(C3)CC(F)(F)C4)n(C)c2Cc2ccc(OC)c(OC)c2)cc1 | – | < 4.40 | – |
| COc1ccc(Cc2nc(NC(=O)c3cccc(N(C)C)c3)n(C)c2Cc2ccc(OC)c(OC)c2)cc1 | – | < 4.40 | – |
| CCCCC(=O)Nc1cccc(C(=O)Nc2nc(Cc3ccc(OC)cc3)c(Cc3ccc(OC)c(OC)c3)n2C)c1 | Active | 5.28 | – |
| COc1ccc(Cc2nc(NC(=O)c3ccc(NC(=O)OC(C)(C)C)cc3)n(C)c2Cc2ccc(OC)c(OC)c2)cc1 | – | 4.65 | – |
| COc1ccc(Cc2nc(NC(=O)c3ccccc3)n(C)c2Cc2ccc(OC)c(OC)c2)cc1 | – | < 4.40 | – |
| CNC(=O)Nc1nc(Cc2ccc(OC)cc2)c(Cc2ccc(OC)c(OC)c2)n1C | Active | 4.62 | – |
| COc1ccc(Cc2nc(NC(=O)c3cc(Br)ccc3O)n(C)c2Cc2ccc(OC)c(OC)c2)cc1 | – | 4.69 | – |
| COc1ccc(Cc2nc(NC(=O)c3ccc(F)cc3)n(C)c2Cc2ccc(OC)c(OC)c2)cc1 | – | < 4.40 | – |
| COc1ccc(Cc2nc(NC(=O)c3cc(OC)cc(OC)c3)n(C)c2Cc2ccc(OC)c(OC)c2)cc1 | – | < 4.40 | – |
| COc1ccc(Cc2nc(NC(=O)C34C[C@H]5C[C@H](C3)C[C@@H](C4)C5)n(C)c2Cc2ccc(OC)c(OC)c2)cc1 | Active | 4.59 | – |
| COc1ccc(Cc2nc(NC(=O)c3ccc(N)cc3)n(C)c2Cc2ccc(OC)c(OC)c2)cc1 | – | 4.60 | – |
| COc1ccc(Cc2nc(NC(=O)c3cccc(NC(C)=O)c3)n(C)c2Cc2ccc(OC)c(OC)c2)cc1 | – | < 4.40 | – |
| CNc1cccc(C(=O)Nc2nc(Cc3ccc(OC)cc3)c(Cc3ccc(OC)c(OC)c3)n2C)c1 | – | < 4.40 | – |
| COc1ccc(Cc2nc(NC(=O)c3ccccc3O)n(C)c2Cc2ccc(OC)c(OC)c2)cc1 | Active | < 4.40 | – |
| COC(=O)C12CCC(C(=O)Nc3nc(Cc4ccc(OC)cc4)c(Cc4ccc(OC)c(OC)c4)n3C)(CC1)CC2 | – | 4.84 | – |
| COc1ccc(Cc2nc(NC(=O)c3sc(C)nc3C(F)(F)F)n(C)c2Cc2ccc(OC)c(OC)c2)cc1 | Active | 4.51 | – |
| COc1ccc(Cc2nc(NC(=O)c3ccc(C(C)=O)cc3)n(C)c2Cc2ccc(OC)c(OC)c2)cc1 | – | 4.57 | – |
| CCCCC(=O)Nc1nc(Cc2ccc(OC)cc2)c(Cc2ccc(OC)c(OC)c2)n1C | – | < 4.40 | – |
| COc1ccc(Cc2nc(NC(=O)c3cccc(NC(=O)CN(C)C)c3)n(C)c2Cc2ccc(OC)c(OC)c2)cc1 | Active | 5.28 | – |
